Reference: US9162993B2, “Preparation and pharmaceuticals of biphenyl benzamide-derived derivatives” (NATIONAL DEFENSE MEDICAL CENTER, priority 2012, dated 2015)

Tests used:
[1] = tested on: RANKL-induced osteoclast differentiation in RAW 264.7 cells; test: TRAP staining, RANKL-induced osteoclast differentiation (TRAP+ multinucleated cells); format: cell-based, murine; conditions: Mus musculus, RAW264.7; RAW 264.7 cells, RANKL (100 ng/mL), compounds at 5 μM, TRAP-positive multinucleated cells; read-out: Inhibition of MNCs (%)
Procedure: (§1) The compounds 1 to 24 of the present invention is tested by three pharmacological activity tests as follows: (1) MTT assay to test the RAW264.7 cell (murine monocyte/macrophage cell line) viability; (2) Tartrate-resistant acid phosphatase (TRAP) staining and activity analysis to investigate the cell differentiation activity; (3) The activity test of bone resorption (Pit formation assay).
(§2) The synthesized difunisal derivatives, compounds 1 to 24, were pharmacologically tested to be identified the relationship between their structure and activity. Cell viability was measured by MTT assay in RAW 264.7 cells upon treatment with compounds at 5 μM. CC50 is the cytotoxic concentration that produces 50% (CC50) cell death. […] The multinucleated osteoclasts could be formed by RANKL-induced macrophage cell line […]. RAW 264.7 cells were cultured with the indicated in the presence of drug and RANKL (100 ng/mL). Numbers of TRAP-positive (TRAP^+) multinucleated cells (MNCs) were counted in the presence of RANKL to identify the relationship between osteoclast and bone formation. […] The compound 16 performed the best inhibitory effect in the TRAP staining. The compound 16 was a derivate from compound 4 and its structure was related to compound 4. Therefore, the compound 4 and 16 were performed by TRAP assay to evaluate the effect on osteoclast differentiation by different concentration of compounds. […] According to above result, it can be speculated that: (1) Due to different substitutes on benzene ring of difunisal, the inhibitory ability of RANKL-induced osteoclast differentiation would be different. (2) Due to the electron-withdrawing group substitutes of R1 and R4 on benzene ring, or electron-withdrawing group substitutes derivatives of R2 on benzene ring, such as compound 4. (R1═F and R4═F), compound 6 (R2═CF3), compound 9 (R2═CN) and compound 16 (R1═F and R4═F), (3) compound 4 (R1═F and R4═F) and compound 6 (R2═CF3), a cyclic derivate compound 16 (R1═F and R4═F) and compound 18 (R2═CF3), the inhibitory activity would be stronger.

NO production = test: Measurement of NO concentrations (Griess reaction) in porcine chondrocytes; format: cell-based; conditions: Sus scrofa, Chondrocyte, nitrite in supernatants, read-out: anti-inflammatory IC50 (μM) on NO production
Procedure: Porcine cartilage was obtained from the hind leg joints of pigs. The synthesis of chondrocytes from cartilage was performed according to our previous report. After enzymatic digestion of articular cartilage with 2 mg/mL protease in serum-free Dulbecco's modified Eagle's medium (DMEM)/antibiotics, the specimens were then digested overnight with 2 mg/mL collagenase I and 0.9 mg/ml, hyaluronidase in DMEM containing 10% fetal bovine serum (FBS). The cells were collected, passed through a cell strainer (Becton Dickinson, Mountain View, Calif., USA), and cultured in DMEM containing 10% […] and antibiotics for 3-4 days before use.
The measurement of NO release was reflected by determination of its stable end product, nitrite, in supernatants. The Griess reaction was performed with the concentrations of nitrite measured by a spectrophotometer. In brief, an aliquot (100 μL) of culture supernatant was incubated with 50 μL of 0.1% sulfanilamide in 5% phosphoric acid and 50 μL of 0.1% N-1-naphthyl-ethylenediamine dihydrochloride. After 10 min of incubation at room temperature, the absorbance was measured at 550 nm wavelength with a plate reader (recall, Grodig, […]).

RAW 264.7 cells = test: MTT assay, RAW264.7 cell viability; format: cell-based; conditions: MTT assay, compounds at 5 μM
Procedure: as §1, §2

[2] = MTT assay, RAW264.7 cell viability; format: cell-based; conditions: mouse; RAW 264.7 cells; cytotoxic concentration that produces 50% cell death
Procedure: as §1, §2

Structure (SMILES)	inhibition at 5 µM [1]	IC50 (NO production)	Cell viability (%) (RAW 264.7 cells)	CC50 [2]
O=C(O)c1cc(-c2ccc(F)cc2F)ccc1O [Diflunisal, reference compound]	23.9 ± 1.88%	> 10 µM	103.82 ± 1.78%	> 20 µM
O=C(Nc1ccc(Cl)cc1F)c1cc(-c2ccc(F)cc2F)ccc1O [compound 1, N-(4-chloro-2-fluorophenyl)-2′,4′-difluoro-4-hydroxybiphenyl-3-carboxamide]	44.3 ± 7.93%	7.94 µM	77.54 ± 1.17%	17.9 µM
O=C(Nc1ccc(F)cc1F)c1cc(-c2ccc(F)cc2F)ccc1O [compound 2, N-(2,4-difluorophenyl)-2′,4′-difluoro-4-hydroxybiphenyl-3-carboxamide]	32.2 ± 5.58%	0.95 µM	109.62 ± 3.37%	> 20 µM
O=C(Nc1ccc(F)c(F)c1)c1cc(-c2ccc(F)cc2F)ccc1O [compound 3]	47.4 ± 5.58%	0.79 µM	78.42 ± 3.79%	14.6 µM
O=C(Nc1ccccc1C(F)(F)F)c1cc(-c2ccc(F)cc2F)ccc1O [compound 5]	42.8 ± 6.51%	> 10 µM	99.37 ± 3.71%	> 20 µM
O=C(Nc1cccc(C(F)(F)F)c1)c1cc(-c2ccc(F)cc2F)ccc1O [compound 6, 2′,4′-difluoro-4-hydroxy-N-(3-(trifluoromethyl)phenyl)[1,1′-biphenyl]-3-carboxamide]	59.2 ± 2.28%	0.71 µM	96.73 ± 1.18%	14.3 µM
O=C(Nc1ccc(C(F)(F)F)cc1)c1cc(-c2ccc(F)cc2F)ccc1O [compound 7, 2′,4′-difluoro-4-hydroxy-N-(4-(trifluoromethyl)phenyl)-[1,1′-biphenyl]-3-carboxamide]	51.5 ± 6.25%	0.64 µM	85.22 ± 3.83%	10.4 µM
C#Cc1cccc(NC(=O)c2cc(-c3ccc(F)cc3F)ccc2O)c1 [compound 8, N-(3-ethynylphenyl)-2′,4′-difluoro-4-hydroxy-[1,1′-biphenyl]-3-carboxamide]	40.6 ± 2.01%	2.45 µM	62.95 ± 0.85%	> 20 µM
N#Cc1cccc(NC(=O)c2cc(-c3ccc(F)cc3F)ccc2O)c1 [compound 9, N-(3-cyanophenyl)-2′,4′-difluoro-4-hydroxy-[1,1′-biphenyl]-3-carboxamide]	71.3 ± 3.39%	> 10 µM	72.15 ± 0.36%	12.3 µM
N#Cc1ccc(NC(=O)c2cc(-c3ccc(F)cc3F)ccc2O)cc1 [compound 10, N-(4-cyanophenyl)-2′,4′-difluoro-4-hydroxy-[1,1′-biphenyl]-3-carboxamide]	13.9 ± 1.23%	> 10 µM	96.24 ± 2.29%	14.4 µM
COc1ccc(NC(=O)c2cc(-c3ccc(F)cc3F)ccc2O)cc1OC [compound 11, N-(3,4-dimethoxyphenyl)-2′,4′-difluoro-4-hydroxy-[1,1′-biphenyl]-3-carboxamid]	51.9 ± 6.5%	1.5 µM	98.87 ± 2.06%	> 20 µM
COc1cccc(NC(=O)c2cc(-c3ccc(F)cc3F)ccc2O)c1 [compound 12, 2′,4′-difluoro-4-hydroxy-N-(3-methoxyphenyl)-[1,1′-biphenyl]-3-carboxamide]	40.8 ± 2.65%	2.24 µM	104.90 ± 2.62%	> 20 µM
O=c1oc2ccc(-c3ccc(F)cc3F)cc2c(=O)n1-c1ccc(Cl)cc1F [compound 13, 3-(4-chloro-2-fluorophenyl)-6-(2,4-difluorophenyl)-2H-benzo[e][1,3]oxazine-2,4(3H)-dione]	19.4 ± 1.4%	1.08 µM	96.22 ± 0.53%	> 20 µM
O=c1oc2ccc(-c3ccc(F)cc3F)cc2c(=O)n1-c1ccc(F)cc1F [compound 14, 3,6-bis(2,4-difluorophenyl)-2H-benzo[e][1,3]oxazine-2,4(3H)-dione]	42.3 ± 6.62%	1.26 µM	96.49 ± 1.86%	12.7 µM
O=c1oc2ccc(-c3ccc(F)cc3F)cc2c(=O)n1-c1ccc(F)c(F)c1 [compound 15]	17.4 ± 7.49%	0.61 µM	72.15 ± 0.43%	9.96 µM
O=c1oc2ccc(-c3ccc(F)cc3F)cc2c(=O)n1-c1ccccc1C(F)(F)F [compound 17, 6-(2,4-difluorophenyl)-3-(2-(trifluoromethy)phenyl)-2H-benzo[e][1,3]oxazine-2,4(3H)-dione]	31.6 ± 4%	> 10 µM	95.53 ± 3.86%	15.1 µM
O=c1oc2ccc(-c3ccc(F)cc3F)cc2c(=O)n1-c1cccc(C(F)(F)F)c1 [compound 18, 6-(2,4-difluorophenyl)-3-(3-(trifluoromethyl)phenyl)-2H-benzo[e][1,3]oxazine-2,4(3H)-dione]	62.9 ± 2.65%	0.55 µM	100.13 ± 0.94%	13 µM
O=c1oc2ccc(-c3ccc(F)cc3F)cc2c(=O)n1-c1ccc(C(F)(F)F)cc1 [compound 19, 6-(2,4-difluorophenyl)-3-(4-(trifluoromethyl)phenyl)-2H-benzo[e][1,3]oxazine-2,4(3H)-dione]	16.9 ± 4.61%	0.75 µM	103.01 ± 2.51%	15.5 µM
C#Cc1cccc(-n2c(=O)oc3ccc(-c4ccc(F)cc4F)cc3c2=O)c1 [compound 20, 6-(2,4-difluorophenyl)-3-(3-ethynylphenyl)-2H-benzo[e][1,3]oxazine-2,4(3H)-dione]	57.5 ± 3.25%	1.63 µM	88.38 ± 4.65%	11 µM
N#Cc1cccc(-n2c(=O)oc3ccc(-c4ccc(F)cc4F)cc3c2=O)c1 [compound 21, 3-(6-(2,4-difluorophenyl)-2,4-dioxo-2H-benzo[e][1,3]oxazin-3(4H)-yl)benzonitrile]	34 ± 6.98%	> 10 µM	102.79 ± 1.93%	14.9 µM
N#Cc1ccc(-n2c(=O)oc3ccc(-c4ccc(F)cc4F)cc3c2=O)cc1 [compound 22, 4-(6-(2,4-difluorophenyl)-2,4-dioxo-2H-benzo[e][1,3]oxazin-3(4H)-yl)benzonitrile]	29.4 ± 5.48%	0.55 µM	108.33 ± 1.10%	> 20 µM
